Some test systems named below: A498; MCF7; SF-539; ACHN; PC-3; HT-29; SK-MEL-2; MDA-N; U-251; NCI-H23; 786-0; HOP-92; HOP-62; OVCAR-5; HL-60; OVCAR-8; KM12; SW-620; SK-OV-3; IGROV-1.
Assay in all cases: inhibition of tumour cell growth, NCI panel, 48 h

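A five-concentration, 48-hour dose response in 96-well plates underlies each endpoint, interpolated linearly between surrounding concentrations. GI50 is the concentration that inhibits growth by half.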 Active and inactive are the calls of the source. No stated cut-off is given here; in the data, active = GI50 up to about 1.1 µM and inactive = higher.

Turning to `Fc1cccc(C2SCC3=Nc4ccccc4CN32)c1` (stereo not drawn), the GI50 was > 100 µM (inactive) in the experiment on A498; 35.4 µM (inactive) in the experiment with MCF7; 47.5 µM (inactive) in the experiment with SF-539; 36.9 µM (inactive) with ACHN; 28.2 µM (inactive) with PC-3; 21.3 µM (inactive) in the experiment on HT-29. In addition, the GI50 in the experiment with SK-MEL-2 is 13.4 µM (inactive); in the experiment on MDA-N, 79.1 µM (inactive); with U-251, 58.2 µM (inactive); in the experiment on NCI-H23 it was 20.8 µM (inactive); in the experiment on 786-0, 37.8 µM (inactive); with HOP-92, 84.1 µM (inactive). Moreover, the GI50 in the experiment on HOP-62 is 38.9 µM (inactive); with OVCAR-5 it was 32.1 µM (inactive); in the experiment with HL-60, 35.1 µM (inactive); in the experiment on OVCAR-8 it was 27 µM (inactive); with KM12, 95.5 µM (inactive); with SW-620, > 100 µM (inactive). Further, the GI50 in the experiment on SK-OV-3 was 39.6 µM (inactive).
`O=C(O)C(/C=C/c1ccccc1)c1ccccc1` (stereo not drawn): the GI50 with A498, with MCF7, in the experiment on SF-539, in the experiment with IGROV-1, in the experiment with ACHN and in the experiment with PC-3 was > 100 µM (inactive) throughout. Further, the GI50 with HT-29, in the experiment with SK-MEL-2, in the experiment on MDA-N, with U-251, with NCI-H23 and in the experiment with 786-0 was > 100 µM (inactive) each time. For the same compound, the GI50 with HOP-92 is > 100 µM (inactive); in the experiment on HOP-62 it was > 100 µM (inactive); in the experiment with OVCAR-5 it was > 100 µM (inactive); in the experiment with HL-60 it was 9.25 µM (inactive); in the experiment on OVCAR-8, > 100 µM (inactive); with SW-620 it was > 100 µM (inactive). In the experiment on SK-OV-3, the GI50 is > 100 µM (inactive).
As to `C/C1=C\[C@@H](O)C(=O)/C=C/C=C\c2csc(n2)[C@@H](C)NC(=O)C[C@@]2(CC1)[S+]([O-])SC(=O)[C@]2(C)O` (stereo partly drawn) [LEINAMYCIN], the GI50 in the experiment on A498 is 0.01 µM (active); in the experiment with MCF7 it was 0.000499 µM (active); with SF-539 it was 0.00968 µM (active); with IGROV-1, 0.2 µM (active); in the experiment with PC-3, 0.0128 µM (active); in the experiment on HT-29, 0.04 µM (active). The GI50 was 0.00601 µM (active) with SK-MEL-2; 0.0101 µM (active) with MDA-N; 0.0454 µM (active) with U-251; 0.00594 µM (active) with NCI-H23; 0.00391 µM (active) in the experiment with 786-0; 0.00228 µM (active) in the experiment with HOP-92. Moreover, the GI50 in the experiment on HOP-62 was 0.13 µM (active); in the experiment on OVCAR-5 it was 0.104 µM (active); in the experiment with HL-60 it was 0.000752 µM (active); with OVCAR-8 it was 0.0174 µM (active); in the experiment on KM12, 0.0813 µM (active); with SW-620, 0.00204 µM (active). For the same compound, the GI50 in the experiment with SK-OV-3 was 0.138 µM (active).
For the compound `CC(=O)OCC1OC(n2c3c(cc(C#N)c2=S)CCCCC3)C(OC(C)=O)C(OC(C)=O)C1OC(C)=O` (stereo not drawn), the GI50 in the experiment with A498, in the experiment on MCF7, in the experiment with SF-539, with IGROV-1, with ACHN and in the experiment on PC-3 was > 100 µM (inactive) in each case. The GI50 with HT-29, in the experiment on SK-MEL-2, in the experiment on MDA-N, in the experiment on U-251, with NCI-H23 and in the experiment with 786-0 was > 100 µM (inactive) in each case. In addition, the GI50 in the experiment with HOP-92, with HOP-62, with OVCAR-5, in the experiment on HL-60, in the experiment with OVCAR-8 and with KM12 was > 100 µM (inactive) in each case.
In the case of `Nc1n[nH]c(Nc2ccc(Cl)cc2)c1P(=O)(c1ccccc1)c1ccccc1`, the GI50 was 37.8 µM (inactive) in the experiment on A498; 29 µM (inactive) in the experiment with MCF7; 21.8 µM (inactive) in the experiment with SF-539; 19.1 µM (inactive) with IGROV-1; 34.4 µM (inactive) in the experiment with ACHN; 19.9 µM (inactive) with PC-3. Moreover, the GI50 was 24 µM (inactive) in the experiment on HT-29; 19.9 µM (inactive) with SK-MEL-2; 11 µM (inactive) with MDA-N; 30.3 µM (inactive) with U-251; 30.4 µM (inactive) in the experiment on NCI-H23; 20.8 µM (inactive) in the experiment on HOP-92. For the same compound, the GI50 with HOP-62 was 20.2 µM (inactive); with OVCAR-5, 18.8 µM (inactive); with HL-60, 25.8 µM (inactive); with OVCAR-8 it was 18.4 µM (inactive); with KM12 it was 17.4 µM (inactive); in the experiment on SW-620, 34.3 µM (inactive). Also, in the experiment on SK-OV-3, the GI50 is 30.8 µM (inactive).
On to `Cc1ccc(-c2c(C#N)c(S)n(NS(=O)(=O)c3ccc(C)cc3)c(=O)c2C#N)cc1`, for which the GI50 with A498 was 33.7 µM (inactive); with MCF7 it was 31.6 µM (inactive); with SF-539, 20.3 µM (inactive); in the experiment with IGROV-1, 16.7 µM (inactive); in the experiment with ACHN, 20.6 µM (inactive); with PC-3 it was 22.8 µM (inactive). Also, the GI50 in the experiment on SK-MEL-2 is 23.3 µM (inactive); in the experiment on MDA-N, 35.6 µM (inactive); in the experiment on U-251, 18.1 µM (inactive); in the experiment on NCI-H23 it was 18.5 µM (inactive); in the experiment on 786-0, 29 µM (inactive); in the experiment on HOP-92, 22.6 µM (inactive). The GI50 is 27.4 µM (inactive) with OVCAR-5; 14.9 µM (inactive) in the experiment on HL-60; 21 µM (inactive) with OVCAR-8; 18 µM (inactive) in the experiment on KM12; 19.9 µM (inactive) with SW-620; 45 µM (inactive) with SK-OV-3.
For the compound `Cc1ccc(CC(Cc2ccccc2C)C(=O)O)c(C(=O)O)c1` (stereo not drawn), the GI50 in the experiment on A498, with MCF7, in the experiment with SF-539, with IGROV-1, in the experiment with ACHN and in the experiment with PC-3 was > 100 µM (inactive) in each case. The GI50 in the experiment on HT-29, in the experiment on SK-MEL-2, in the experiment on MDA-N, in the experiment on U-251, in the experiment with NCI-H23 and with 786-0 was > 100 µM (inactive) each time. Also, the GI50 in the experiment on HOP-92, with HOP-62, in the experiment on OVCAR-5, with HL-60, in the experiment with OVCAR-8 and with KM12 was > 100 µM (inactive) in each case. Further, the GI50 in the experiment on SW-620 was > 100 µM (inactive).
Take `CC#CC#C/C(=C/C=CC(=O)OC)SC`: the GI50 in the experiment with A498, in the experiment with MCF7, in the experiment on SF-539, with IGROV-1, in the experiment on PC-3 and in the experiment on HT-29 was > 100 µM (inactive) throughout. Besides, the GI50 with SK-MEL-2, in the experiment on MDA-N, in the experiment on U-251, in the experiment on 786-0, in the experiment on HOP-92 and in the experiment with OVCAR-5 was > 100 µM (inactive) each time. Moreover, the GI50 in the experiment on HL-60, in the experiment with OVCAR-8, with KM12, with SW-620 and in the experiment on SK-OV-3 was > 100 µM (inactive) each time.

These data come from ChEMBL document CHEMBL1201862, “PubChem BioAssay data set” (2004).
